{"source": "patent US9056842B2", "about": "“Cosmetic use of substituted amino heterocylic carbamoyl analogs and related compounds” (Avon Products, Inc., priority 2011, dated 2015)", "test_system": "Human dermal fibroblasts", "test": "Stimulation of collagen synthesis, procollagen type I C-peptide (PIP) EIA on conditioned medium", "type": "cell-based", "conditions": "compound at 0.0005% in DMSO, triplicate, 48-hour incubation; increase in collagen over the DMSO control", "description": "Human dermal fibroblasts (Cascade Biologics, Portland, Oreg.) were plated at 10,000 cells/well in 96-well culture plates in supplemented medium (DMEM, 10% Fetal Bovine Serum, 1% Penicillin/Streptomycin and 1% L-Glutamine) overnight in humidified atmosphere of 10% CO2 at 37° C. […] DMSO solution was used a control. Following 48-hour incubation, the plates were removed from the incubator and the medium from each well was collected for the procollagen assay. Collagen production was measured using procollagen type I C-peptide (PIP) EIA kit (Takara Bio, Inc., Japan). […] The ELISA plate was incubated at 37° C. for 3 hours before the wells were washed four times with 400 μl of 1×PBS. At the end of wash, 100 μl of substrate solution (supplied with kit) was added to the wells and incubated at room temperature for 15 minutes. The reaction was stopped by adding 100 μl of 1N sulfuric acid to the wells. The absorbance was measured on a spectrophotometer at 450 nm wavelength. The amount of procollagen peptide in the conditioned medium was calculated from the standard curve. The stimulation of collagen production was shown as an increase in collagen over the control.", "data": [{"molecule": "CCOCCCNC(=O)c1coc(CN(CCCOCC)C(=O)c2ccc(Cl)cc2)n1", "note": "[Compound 2]", "values": [{"measurement": "% Collagen Stimulation", "value": 67.86, "unit": "%"}]}, {"molecule": "CCOCCCNC(=O)c1coc(CN(CCCOCC)C(=O)c2cccc(Br)c2)n1", "note": "[Compound 1]", "values": [{"measurement": "% Collagen Stimulation", "value": 68.77, "unit": "%"}]}]}
